Experimental data published in patent US10709745B2, “Tropic cell based virotherapy for the treatment of cancer” (priority 2013, dated 2020).

Experiments:
[1] = system: U87MG intracranial glioma xenografts; experiment: U87MG intracranial xenograft, TMZ and CRAd-S-pk7 combination survival; type: in vivo, mice
Description: FIGS. 11A, 11B and 11C show in vivo anti-tumor activity of CRAd-S-pk7 in combination with TMZ according to one embodiment. (FIG. 11A) Five consecutive injections of TMZ at 70 mg/kg/day (▾) achieve 100% survival for 80 days post U87MG implantation, whereas 5 TMZ injections at 10 mg/kg/day (∘) had significant increase in survival compared to mock treatment ( )(p<0.05).
Because temozolomide (TMZ) is the standard of care for patients with GBM, the efficacy of TMZ and CRAd-S-pk7 combination was evaluated in vivo in mice with U87MG intracranial (i.c.) glioma xenografts. To employ a dose that resembles the partial therapeutic effect of TMZ seen in the clinical scenario, different doses of TMZ were tested. Based on those studies, a dose of 10 mg/kg/day×5 days of intraperitoneal (i.p.) TMZ was chosen to study the efficacy of a TMZ and CRAd-S-pk7 combination treatment, since this dose led to an increase in survival but remained non-curative (FIG. 11A) (log-rank test, p<0.05). Additionally, different doses of i.c. CRAd-S-pk7 injections were tested to investigate which dose provides an increase in survival that could be further enhanced by the addition of co-adjuvant TMZ. A dose of 3×10^9 vp/mouse×2 injections of CRAd-S-pk7 was chosen for testing the therapeutic effects of TMZ+CRAd-S-pk7 combination, since it led to a partial efficacy that could be further enhanced (FIG. 11B) (log-rank test p<0.05).
Based on the above findings, the combination of TMZ and CRAd-S-pk7 was tested for efficacy in terms of survival (FIG. 11C). The combination of TMZ (10 mg/kg/day×5) plus two i.c. injections of CRAd-S-pk7 3×10^9 vp/mouse led to a 90% of long term survivors (>90 days) (LTS). […] Consistent with the finding of an additive cytotoxic effect of TMZ and CRAd-S-pk7 in vitro experiments, this treatment combination led to an improved survival in mice bearing intracranial human glioma xenografts.

GBM43 glioma xenografts = experiment: Intracranial GBM43 xenograft: TMZ, XRT and CRAd-S-pk7-loaded NSCs; type: in vivo, nude mice
Description: FIGS. 43A, 43B and 43C illustrate the in vivo efficacy of CRAd-Survivin-pk7 (CRAd-S-pk7)-loaded NSCs and XRT-TMZ treatment against human-derived glioma xenografts according to one embodiment. Intracranial GBM43 (3.5×10^5 cells per animal) was established, and the animals were treated for 5 consecutive days beginning on day 6 after tumor cell implantation. (FIG. 43A): Survival of animals treated with escalating doses of intraperitoneally administered TMZ (0, 5, 10, or 30 mg/kg). (FIG. 43B): Survival of animals treated with XRT (2 Gy) or a combination of XRT (2 Gy) and TMZ (2.5, 5, 10, or 30 mg/kg). (FIG. 43C): Survival of animals treated with the optimized dose of 2 Gy XRT and 5 mg/kg TMZ in addition to 5×10^5 or 3×10^6 NSCs loaded with 50 infectious units of CRAd-S-pk7. […] Abbreviations: ND, not determined; ns, no significance; NSC, neural stem cell; TMZ, temozolomide; XRT, radiation therapy.
FIGS. 45A and 45B illustrate the scheduling of CRAd-Survivin-pk7 (CRAd-S-pk7)-loaded NSC administration in vivo according to one embodiment. (FIG. 45A): Survival of animals treated with both therapeutic scheduling protocols. […] For each treatment group, five images were taken using the […]20 objective, and the number of positive cells was quantified per field of view (right). *, p<0.05; **, p<0.01; ***, p<0.001. […]

GBM43 = experiment: TMZ IC50 with simultaneous XRT; type: cell-based; settings: Homo sapiens; treated with XRT (2 Gy) simultaneously
Description: For all studies, the cells and mice received XRT in accordance with the University of Chicago's radiation safety guidelines and protocols. All cells received a single dose of 2 Gy XRT. For animal studies, 10 Gy fractioned dose radiotherapy (2 Gy for 5 consecutive days) was used. The animals were irradiated with a lead cover shielding their entire body, with only their heads exposed. […] For in vivo studies, the mice received 2.5, 5, 10, or 30 mg/kg TMZ via intraperitoneal injection.

Structure (SMILES): Cn1nnc2c(C(N)=O)ncn2c1=O [TMZ, temozolomide]
- median survival ([1]; TMZ 10 mg/kg/day×5 alone or CRAd-S-pk7 3×10^9 vp/mouse×2 alone): 51 days
- long term survivors (>90 days) (LTS) ([1]; TMZ 10 mg/kg/day×5 i.p., CRAd-S-pk7 3×10^9 vp/mouse×2 i.c., alone or combined): 7%
- survival for 80 days post U87MG implantation ([1]; TMZ 70 mg/kg/day, five consecutive injections): 100%
- increase in survival vs XRT-treated animals (GBM43 glioma xenografts; TMZ 5 mg/kg plus XRT 2 Gy ×5): 7 days
- median survival (GBM43 glioma xenografts; TMZ 5 mg/kg plus XRT 2 Gy ×5 (FIG. 43B)): 31 days
- IC50 (GBM43): 37 µM
